Measured values taken from publication PMC5578999, “Novel quinolone chalcones targeting colchicine-binding pocket kill multidrug-resistant cancer cells by inhibiting tubulin activity and MRP1 function” (Scientific Reports, 2017).

Columns and labels:
Assay in all cases: NCI-60 SRB screen
Type in all cases: cell-based
HOP-62 = system: HOP-62
Excerpt: (§1) Supplementary Figure l egend
(§2) 10μ M of CTR-20 was used to examine the drug’s efficac y against the NC I-60 cancer cell li nes including: six leukemia cell lines, nine non- small cell lung cancer cell lines, seven color ect al cancer cell lines, six CNS cancer cell lines, nine melanoma cell lines, seven ovari an can cer cell lines, seven ren al can cer cell lines, two prostate cancer cell lines and six breast cancer cell lines. The scr eenin g was car r ied out b y the US National Cancer Institute (NC I) us i n g a sulforhodamine B (SRB) colorimetric assay. […]
(§3) out by the NC I using five different doses of CTR -20.

HOP-92 = system: HOP-92
Excerpt: as §1, §2, §3

LOX IMVI = system: LOX IMVI
Excerpt: as §1, §2, §3

M14 = system: M14
Excerpt: as §1, §2, §3

MALME-3M = system: MALME-3M
Excerpt: as §1, §2, §3

PC-3 = system: PC-3
Excerpt: as §1, §2, §3

SF-539 = system: SF-539
Excerpt: as §1, §2, §3

SK-MEL-5 = system: SK-MEL-5
Excerpt: as §1, §2, §3

SN12C = system: SN12C
Excerpt: as §1, §2, §3

SNB-19 = system: SNB-19
Excerpt: as §1, §2, §3

TK-10 = system: TK-10
Excerpt: as §1, §2, §3

UO-31 = system: UO-31
Excerpt: as §1, §2, §3

[1] = Homo sapiens, read-out: LC50 (the source's name)

COc1ccc2[nH]c(=O)c(/C=C/C(=O)c3ccccc3OC)cc2c1 [CTR-20, (E)-6-Methoxy-3-(3-(2-methoxyphenyl)-3-oxoprop-1-enyl) quinolin-2(1H)-one]
Log10GI50 (HOP-62): -5.91 Molar
Log10LC50 (HOP-62): -4.63 Molar
Log10TGI (HOP-62): -5.27 Molar
TGI (HOP-62): 5.32E-6 Molar
Growth Percent (HOP-62; 1.00E-5 Molar): 8.67%
GI50 (HOP-62; Homo sapiens): 1.24 µM
LC50 (HOP-62; Homo sapiens): 23.7 µM
Percent Growth (HOP-62; Log10 Concentration -4.0): -97%
Percent Growth (HOP-62; Log10 Concentration -5.0): -22%
Percent Growth (HOP-62; Log10 Concentration -6.0): 58%
Percent Growth (HOP-62; Log10 Concentration -7.0): 95%
Percent Growth (HOP-62; Log10 Concentration -8.0): 89%
Log10GI50 (HOP-92): -5.80 Molar
Log10LC50 (HOP-92): -4.57 Molar
Log10TGI (HOP-92): -5.21 Molar
TGI (HOP-92): 6.17E-6 Molar
Growth Percent (HOP-92; 1.00E-5 Molar): -11.97%
GI50 (HOP-92; Homo sapiens): 1.57 µM
LC50 (HOP-92; Homo sapiens): 27 µM
Percent Growth (HOP-92; Log10 Concentration -4.0): -92%
Percent Growth (HOP-92; Log10 Concentration -5.0): -18%
Percent Growth (HOP-92; Log10 Concentration -6.0): 67%
Percent Growth (HOP-92; Log10 Concentration -7.0): 111%
Percent Growth (HOP-92; Log10 Concentration -8.0): 107%
Log10GI50 (LOX IMVI): -6.42 Molar
Log10LC50 (LOX IMVI): -5.33 Molar
Log10TGI (LOX IMVI): -5.79 Molar
TGI (LOX IMVI): 1.61E-6 Molar
Growth Percent (LOX IMVI; 1.00E-5 Molar): 10.23%
GI50 (LOX IMVI; Homo sapiens): 0.379 µM
LC50 (LOX IMVI; Homo sapiens): 4.71 µM
Percent Growth (LOX IMVI; Log10 Concentration -4.0): -95%
Percent Growth (LOX IMVI; Log10 Concentration -5.0): -85%
Percent Growth (LOX IMVI; Log10 Concentration -6.0): 22%
Percent Growth (LOX IMVI; Log10 Concentration -7.0): 88%
Percent Growth (LOX IMVI; Log10 Concentration -8.0): 96%
Log10GI50 (M14): -6.56 Molar
Log10LC50 (M14): -4.62 Molar
Log10TGI (M14): -5.85 Molar
TGI (M14): 1.41E-6 Molar
Growth Percent (M14; 1.00E-5 Molar): 13.82%
GI50 (M14; Homo sapiens): 0.278 µM
CC50 (M14; [1]): 24 µM
Percent Growth (M14; Log10 Concentration -4.0): -93%
Percent Growth (M14; Log10 Concentration -5.0): -23%
Percent Growth (M14; Log10 Concentration -6.0): 4%
Percent Growth (M14; Log10 Concentration -7.0): 87%
Percent Growth (M14; Log10 Concentration -8.0): 92%
GI50 (MALME-3M; Homo sapiens, Malme-3M): 0.766 µM
CC50 (MALME-3M; Homo sapiens, Malme-3M, read-out: LC50 (the source's name)): 30.3 µM
Log10GI50 (MALME-3M; MALME-3M): -6.12 Molar
Log10LC50 (MALME-3M; MALME-3M): -4.52 Molar
Log10TGI (MALME-3M; MALME-3M): -5.09 Molar
TGI (MALME-3M; MALME-3M): 8.09E-6 Molar
Growth Percent (MALME-3M; MALME-3M, 1.00E-5 Molar): 38.55%
Percent Growth (MALME-3M; MALME-3M, Log10 Concentration -4.0): -99%
Percent Growth (MALME-3M; MALME-3M, Log10 Concentration -5.0): -5%
Percent Growth (MALME-3M; MALME-3M, Log10 Concentration -6.0): 46%
Percent Growth (MALME-3M; MALME-3M, Log10 Concentration -7.0): 81%
Percent Growth (MALME-3M; MALME-3M, Log10 Concentration -8.0): 92%
Log10GI50 (PC-3): -6.07 Molar
Log10LC50 (PC-3): -4.59 Molar
Log10TGI (PC-3): -5.43 Molar
TGI (PC-3): 3.75E-6 Molar
Growth Percent (PC-3; 1.00E-5 Molar): 22.06%
GI50 (PC-3; Homo sapiens): 0.842 µM
CC50 (PC-3; [1]): 25.9 µM
Percent Growth (PC-3; Log10 Concentration -4.0): -73%
Percent Growth (PC-3; Log10 Concentration -5.0): -34%
Percent Growth (PC-3; Log10 Concentration -6.0): 46%
Percent Growth (PC-3; Log10 Concentration -7.0): 102%
Percent Growth (PC-3; Log10 Concentration -8.0): 104%
Log10GI50 (SF-539): -6.35 Molar
Log10LC50 (SF-539): -4.87 Molar
Log10TGI (SF-539): -5.60 Molar
TGI (SF-539): 2.49E-6 Molar
Growth Percent (SF-539; 1.00E-5 Molar): -10.00%
GI50 (SF-539; Homo sapiens): 0.443 µM
LC50 (concentration killing 50% of starting cells) (SF-539; Homo sapiens): 13.4 µM
Percent Growth (SF-539; Log10 Concentration -4.0): -99%
Percent Growth (SF-539; Log10 Concentration -5.0): -43%
Percent Growth (SF-539; Log10 Concentration -6.0): 28%
Percent Growth (SF-539; Log10 Concentration -7.0): 90%
Percent Growth (SF-539; Log10 Concentration -8.0): 90%
Log10GI50 (SK-MEL-5): -6.14 Molar
Log10LC50 (SK-MEL-5): -5.31 Molar
Log10TGI (SK-MEL-5): -5.68 Molar
TGI (SK-MEL-5): 2.08E-6 Molar
Growth Percent (SK-MEL-5; 1.00E-5 Molar): 25.21%
GI50 (SK-MEL-5; Homo sapiens): 0.728 µM
CC50 (SK-MEL-5; [1]): 4.93 µM
Percent Growth (SK-MEL-5; Log10 Concentration -4.0): -98%
Percent Growth (SK-MEL-5; Log10 Concentration -5.0): -91%
Percent Growth (SK-MEL-5; Log10 Concentration -6.0): 43%
Percent Growth (SK-MEL-5; Log10 Concentration -7.0): 96%
Percent Growth (SK-MEL-5; Log10 Concentration -8.0): 101%
Log10GI50 (SN12C): -6.27 Molar
Log10LC50 (SN12C): -4.44 Molar
Log10TGI (SN12C): -4.99 Molar
TGI (SN12C): 1.03E-5 Molar
Growth Percent (SN12C; 1.00E-5 Molar): 8.57%
GI50 (SN12C; Homo sapiens): 0.537 µM
CC50 (SN12C; [1]): 36.7 µM
Percent Growth (SN12C; Log10 Concentration -4.0): -89%
Percent Growth (SN12C; Log10 Concentration -5.0): 1%
Percent Growth (SN12C; Log10 Concentration -6.0): 32%
Percent Growth (SN12C; Log10 Concentration -7.0): 100%
Percent Growth (SN12C; Log10 Concentration -8.0): 102%
Log10GI50 (SNB-19): -6.44 Molar
Log10LC50 (SNB-19): -5.05 Molar
Log10TGI (SNB-19): -5.75 Molar
TGI (SNB-19): 1.79E-6 Molar
Growth Percent (SNB-19; 1.00E-5 Molar): 17.04%
GI50 (SNB-19; Homo sapiens): 0.362 µM
CC50 (SNB-19; [1]): 8.88 µM
Percent Growth (SNB-19; Log10 Concentration -4.0): -89%
Percent Growth (SNB-19; Log10 Concentration -5.0): -54%
Percent Growth (SNB-19; Log10 Concentration -6.0): 18%
Percent Growth (SNB-19; Log10 Concentration -7.0): 90%
Percent Growth (SNB-19; Log10 Concentration -8.0): 98%
Log10GI50 (TK-10): -5.64 Molar
Log10LC50 (TK-10): -4.44 Molar
Log10TGI (TK-10): -4.88 Molar
TGI (TK-10): 1.31E-5 Molar
Growth Percent (TK-10; 1.00E-5 Molar): 42.01%
GI50 (TK-10; Homo sapiens): 2.31 µM
CC50 (TK-10; [1]): 36.4 µM
Percent Growth (TK-10; Log10 Concentration -4.0): -99%
Percent Growth (TK-10; Log10 Concentration -5.0): 13%
Percent Growth (TK-10; Log10 Concentration -6.0): 71%
Percent Growth (TK-10; Log10 Concentration -7.0): 93%
Percent Growth (TK-10; Log10 Concentration -8.0): 91%
Log10GI50 (UO-31): -6.02 Molar
Log10LC50 (UO-31): -5.28 Molar
Log10TGI (UO-31): -5.64 Molar
TGI (UO-31): 2.28E-6 Molar
Growth Percent (UO-31; 1.00E-5 Molar): 23.62%
GI50 (UO-31; Homo sapiens): 0.958 µM
CC50 (UO-31; [1]): 5.27 µM
Percent Growth (UO-31; Log10 Concentration -4.0): -100%
Percent Growth (UO-31; Log10 Concentration -5.0): -88%
Percent Growth (UO-31; Log10 Concentration -6.0): 49%
Percent Growth (UO-31; Log10 Concentration -7.0): 81%
Percent Growth (UO-31; Log10 Concentration -8.0): 87%
